The test system of series [1] is kidney-like microspheres (HUVEC, hMSC, HEK, hMC, HK2). In kind it is cell-based, human. The method, then:
Kidney-like organoids were produced in vitro by co-culturing endothelial cells (HUVEC), mesenchymal stem cells (hMSC), and human embryonic kidney cells (HEK) with human mesangial cells (hMC) and human renal tubular cells (HK2). 5×10^4 hMSC, 2×10^5 HUVEC, 5×10^4 HEK, 5×10^4 hMC, and 5×10^4 HK 2 were suspended in 2 ml 10% FCS or MSCGM, and seeded in a MicroWell culture plate. After incubation in a 5% CO2 humidified incubator at 37° C. for 24 hours, formation of cell aggregates and microspheres was observed (FIG. 6). The resulting kidney-like microspheres maintained their spherical morphology for 20 days or longer. • 7. Analysis of Gene Expression
RT-PCR analysis was performed on mRNA of kidney-like microspheres using five types of cells. Total RNA was extracted from the spheres using a TRIzol reagent (Invitrogen), and reverse-transcribed with an oligo (dT) primer using a SuperScript First-Strand Synthesis kit (Invitrogen) to produce first-strand cDNA. Subsequently, PCR was performed to detect the expression of renal tubular cell-specific genes, renal tubular injury marker (epithelial-mesenchymal transition (EMT)) genes, and GAPDH. […] The influence of cisplatin was analyzed by adding cisplatin to the culture solution to a final concentration of 5 μM, and extracting RNA after 3 hours and after 24 hours for analysis. […]

Series [2] concerns three-dimensional kidney-like tissue (embryonic kidney cells, mesenchymal stem cells, proximal renal tubular cells, vascular endothelial cells). Format: cell-based. The method, then:
Embryonic kidney cells, mesenchymal stem cells, proximal renal tubular cells, and vascular endothelial cells were co-cultured for 24 hours to obtain a self-organized, three-dimensional kidney-like tissue (FIG. 9 (A)). This was exposed to cisplatin at a concentration of 5 μM, and spheres were collected after 3 hours and after 24 hours. After extraction of RNA, changes in gene expression were analyzed by the RT-PCR method. After the culture solution of the spheres was collected and cell components were separated by centrifugation, β2 microglobulin was measured with a “Lumipulse Presto β2-M” (produced by Fujirebio, Inc.) kit (FIG. 9 (B)). Further, changes in the shape of the spheres were imaged using an optical microscope (FIG. 9 (C)). […] Use of Microspheres as Kidney Model (Podocyte Injury)

The test system of series [3] is three-dimensional kidney-like tissue (embryonic kidney cells, mesenchymal stem cells, vascular endothelial cells). The series is described as follows: Kidney model (podocyte injury): three-dimensional kidney-like tissue exposed to puromycin, nephrin qRT-PCR. In kind it is cell-based. To be noted: puromycin 50 μg/ml, 24 hours, qRT-PCR (FIG. 10). The method, then:
Embryonic kidney cells, mesenchymal stem cells, and vascular endothelial cells were co-cultured for 24 hours to obtain a self-organized, three-dimensional kidney-like tissue. The kidney-like tissue was exposed to puromycin at a concentration of 50 μg/ml. After 24 hours, spheres were collected. After extraction of RNA, changes in nephrin gene expression were analyzed by the qRT-PCR method (FIG. 10). […] Using this model allows for screening an effective drug for podocyte injury. • 12. Use as Pathophysiological Analysis System for Human Refractory Renal Disease

`N.N.[Cl][Pt][Cl]` [cisplatin]: the “expression of genes constitutively expressed in podocytes” value in series [1] was “reduction”. In addition, in series [2], the “renal damage reflected by analysis results (gene expression, β2 microglobulin, sphere shape)” value was “renal tubular injury at the acute phase and podocyte injury at the chronic phase”.
As to `CN(C)C(=N)N=C(N)N` [metformin], the “abnormal changes in gene expression in acute kidney injury caused by cisplatin” value in series [1] (pre-administration, 3 hours after cisplatin administration (left side of FIG. 7)) is reported as “inhibited”.
For the molecule `COc1ccc(C[C@H](N)C(=O)N[C@H]2[C@@H](O)[C@H](n3cnc4c(N(C)C)ncnc43)O[C@@H]2CO)cc1` [puromycin], in series [3], the “podocyte injury (changes in nephrin gene expression)” value is recorded as “podocyte injury model, which was conventionally prepared by using mice, can be reproduced”.

Source of the values: patent publication US11685902B2, “Production method for kidney-like tissue” (Tokushima University, priority 2016, dated 2023).
